Reference: patent publication US11780852B2, “Methods for treating Crohn's disease using 3-((1R,3s,5S)-3-((7-((5-methyl-1H-pyrazol-3-yl)amino)-1,6-naphthyridin-5-yl)amino)-8-azabicyclo[3.2.1]octan-8-yl)propanenitrile” (priority 2015, dated 2023)

Key:
[1] = test system: oxazolone-induced colitis; assay: Mouse model of oxazolone-induced colitis; type: in vivo, BALB/C mice; conditions: PO, 1, 3, and/or 10 mg/kg BID (doses up to 10 mg/kg BID)
Procedure: Assay 7: Mouse Model of Oxazalone-Induced Colitis
Oxazolone-induced colitis is an experimental model that has a histological resemblance to human ulcerative colitis (Heller et al. Immunology, 2002, 17, 629-638). Adult BALB/C mice from Harlan were used in the assay. On day 1, animals were lightly anesthetized with isoflurane and the hairs between the shoulder were carefully removed before oxazolone (4%, 150 μL, 4:1 acetone:olive oil formulation) or vehicle solution was slowly applied for skin sensitization. Seven days after skin sensitization, the mice were fasted overnight, anesthetized with isoflurane inhalation, and a 1 mL syringe equipped with a 3.5-F catheter, filled with oxazolone solution, was inserted carefully about 4 cm into the colon of the mouse. Following insertion, 50 μL of the oxazolone solution (1%, 1:1 ethanol:water formulation) was injected very slowly (over 30 sec using an injection pump) into the colon. The catheter was removed and the mice were held vertically (head down) for 2 min to ensure that the entire oxazolone solution remained inside the colon. Drug treatment (PO, BID or TID) or vehicle was initiated a day prior to the oxazolone intrarectal (IR) challenge. Two-day post oxazolone intrarectal challenge, the Disease Activity Index (DAI) was assessed by treatment-blinded experimenters for each mouse according to the criteria score: stool consistency score (0, normal; 2, loose; 4, diarrhea), gross bleeding score (0, absence; 2, blood tinged; 4, presence), and weight loss score (0, none; 1, 1%-5%; 2, 5%-10^%; 3, 10%-20%; 4, more than 20%); DAI=average of (stool consistency score+gross bleeding score+weight loss score).
Selected compounds of the invention were tested in the assay. Efficacy in the model is evidenced by a decrease in DAI score as compared with the score from vehicle treated animals.

[2] = First in human study of safety, tolerability and pharmacokinetics in healthy subjects; type: in vivo; conditions: by comparison to other orally administered compounds
Procedure: Assay 9: First in Human Study to Evaluate the Safety, Tolerability and Pharmacokinetics in Healthy Subjects
The compound of Example 1 was evaluated in a double-blinded, randomized, placebo-controlled, single ascending dose (SAD) and multiple ascending dose (MAD) study of safety, tolerability, and pharmacokinetics in healthy subjects. Pharmacokinetic samples were collected up to 72 hours post the final dose in both the SAD study (after the first dose) and MAD study (after 14 days of once-daily dosing). The SAD study enrolled 5 cohorts and the MAD study enrolled 4 cohorts totaling 72 subjects, of which 71 completed the dosing period.
Plasma pharmacokinetic (PK) parameters were determined by non-compartmental analysis using WinNonLin Version 6.4.0 (Pharsight, St Louis, Mo.). The plasma PK parameter presented here is:
Cmax: maximum concentration in plasma

[3] = test system: splenic NK, B and T cells; assay: Immunosuppression effects in mouse splenic natural killer (NK) cells; type: in vivo, Balb/C mice
Procedure: Assay 8: Immunosuppression Effects in Mouse Splenic Natural Killer (NK) Cells Depletion of mouse splenic cells is an experimental model of immunosuppression (Kudlacz et al., Am. J. of Transplantation, 2004, 4, 51-57). […] Adult male Balb/C mice (12-14 weeks of age) from Harlan were used for the study. […] Spleens were harvested 1 or 2 h post last dose and crushed immediately for cell subtype staining. Prior to fixation, fluorophore-labelled antibodies for CD19 (FITC; B cells), CD3e (PE; pan T cells) and DX5 (APC; NK cells) were incubated with splenocyte samples from each animal to allow for simultaneous, multiple subtype % analysis on the flow cytometer. The number of total spleen cells for each animal was measured by Scepter™ 2.0 Handheld Automated Cell Counter. The absolute number of lymphocyte subtype population (e.g., splenic B, T and NK cells) was calculated from the percentage of each subtype times total spleen cells for each animal. A one way ANOVA, with Dunnett's post hoc test, was used to compare the splenic lymphocytes number of the vehicle and test compound groups. The a level was set at p<0.05. Data were presented as the mean±SEM for each group.

[4] = Pharmacokinetics in plasma and the GI tract in rats; type: in vivo, Sprague Dawley rats; conditions: oral dosing in preclinical species
Procedure: Assay 6: Pharmacokinetics in Plasma and the GI Tract in Rats and Dogs A test compound was dosed to male Sprague Dawley rats (n=3) as described in Assay 5. […] At all time points, the plasma concentration was below the limit of quantitation of 0.001 μg/mL.

Cc1cc(Nc2cc3ncccc3c(N[C@@H]3C[C@H]4CC[C@@H](C3)N4CCC#N)n2)n[nH]1 [Example 1, 3-((1R,3s,5S)-3-((7-((5-methyl-1H-pyrazol-3-yl)amino)-1,6-naphthyridin-5-yl)amino)-8-azabicyclo[3.2.1]octan-8-yl)propanenitrile]
DAI score as compared with vehicle treated animals [1]: statistically significant decrease | oral bioavailability [2]: very low | effect of immunosuppression ([3]; mice, same dose required for efficacy in the oxazolone model): minimal effect | B and T cell populations (spleen) ([3]; mouse, PO BID three days): No treatment effect | splenic NK cell counts ([3]; mouse, PO BID three days, tofacitinib 30 mg/kg, Example 1 up to 100 mg/kg): unaffected | exposure throughout the gastrointestinal tract versus exposure in plasma [4]: significantly higher exposure
